From PubChem BioAssay (NCI)
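96-well plates; 48 h exposure; 5 concentrations. Endpoints by linear interpolation between flanking doses. Not reached: highest tested concentration assigned. The concentration for full growth arrest is given as TGI.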

What was measured:
Assay in all cases: NCI anticancer screen, dose series, 48 h
A498 renal = tested on: A498 renal
A549 NSCLC = tested on: A549 NSCLC
ACHN renal = tested on: ACHN renal
CCRF-CEM leukemia = tested on: CCRF-CEM leukemia
COLO 205 colon = tested on: COLO 205 colon
DLD-1 colon = tested on: DLD-1 colon
DMS 114 small cell lung = tested on: DMS 114 small cell lung
EKVX NSCLC = tested on: EKVX NSCLC
HCC-2998 colon = tested on: HCC-2998 colon
HCT-116 colon = tested on: HCT-116 colon
HCT-15 colon = tested on: HCT-15 colon
HOP-62 NSCLC = tested on: HOP-62 NSCLC
HOP-92 NSCLC = tested on: HOP-92 NSCLC
HT29 colon = tested on: HT29 colon
IGROV1 ovarian = tested on: IGROV1 ovarian
KM20L2 colon = tested on: KM20L2 colon
LOX IMVI melanoma = tested on: LOX IMVI melanoma
LXFL 529 NSCLC = tested on: LXFL 529 NSCLC
M14 melanoma = tested on: M14 melanoma
MALME-3M melanoma = tested on: MALME-3M melanoma
MOLT-4 leukemia = tested on: MOLT-4 leukemia
NCI-H23 lung = tested on: NCI-H23 lung
NCI-H460 lung = tested on: NCI-H460 lung
NCI-H522 lung = tested on: NCI-H522 lung
OVCAR-3 ovarian = tested on: OVCAR-3 ovarian
OVCAR-4 ovarian = tested on: OVCAR-4 ovarian
OVCAR-5 ovarian = tested on: OVCAR-5 ovarian
OVCAR-8 ovarian = tested on: OVCAR-8 ovarian
RPMI-8226 leukemia = tested on: RPMI-8226 leukemia
SF-268 CNS = tested on: SF-268 CNS
SF-295 CNS = tested on: SF-295 CNS
SF-539 CNS = tested on: SF-539 CNS
SK-MEL-2 melanoma = tested on: SK-MEL-2 melanoma
SK-MEL-28 melanoma = tested on: SK-MEL-28 melanoma
SK-MEL-5 melanoma = tested on: SK-MEL-5 melanoma
SK-OV-3 ovarian = tested on: SK-OV-3 ovarian
SN12C renal = tested on: SN12C renal
SNB-19 CNS = tested on: SNB-19 CNS
SNB-75 CNS = tested on: SNB-75 CNS
SNB-78 CNS = tested on: SNB-78 CNS
TK-10 renal = tested on: TK-10 renal
U251 CNS = tested on: U251 CNS
UACC-257 melanoma = tested on: UACC-257 melanoma
UACC-62 melanoma = tested on: UACC-62 melanoma
786-0 renal = tested on: 786-0 renal
BT-549 breast = tested on: BT-549 breast
CAKI-1 renal = tested on: CAKI-1 renal
DU-145 prostate = tested on: DU-145 prostate
HL-60(TB) leukemia = tested on: HL-60(TB) leukemia
HS 578T breast = tested on: HS 578T breast
K-562 leukemia = tested on: K-562 leukemia
KM12 colon = tested on: KM12 colon
MCF7 breast = tested on: MCF7 breast
MDA-MB-231 breast = tested on: MDA-MB-231 breast
MDA-MB-435 = tested on: MDA-MB-435
MDA-N = tested on: MDA-N
NCI-H226 lung = tested on: NCI-H226 lung
NCI/ADR-RES ovarian = tested on: NCI/ADR-RES ovarian
PC-3 prostate = tested on: PC-3 prostate
RXF 393 renal = tested on: RXF 393 renal
SR leukemia = tested on: SR leukemia
SW-620 colon = tested on: SW-620 colon
T-47D breast = tested on: T-47D breast
UO-31 renal = tested on: UO-31 renal

CC(=O)c1ccc(Oc2ccc(/C(C)=N\N=C(N)N)cc2)cc1
TGI (A498 renal): 7.53 µM | TGI (A549 NSCLC): 14.5 µM | TGI (ACHN renal): 17.4 µM | TGI (CCRF-CEM leukemia): 10.4 µM | TGI (COLO 205 colon): 3.26 µM | TGI (DLD-1 colon): 14.3 µM | TGI (DMS 114 small cell lung): 4.98 µM | TGI (EKVX NSCLC): 16.7 µM | TGI (HCC-2998 colon): 20.8 µM | TGI (HCT-116 colon): 13 µM | TGI (HCT-15 colon): 13.2 µM | TGI (HOP-62 NSCLC): 9.72 µM | TGI (HOP-92 NSCLC): 13.8 µM | TGI (HT29 colon): 3.52 µM | TGI (IGROV1 ovarian): 18.2 µM | TGI (KM20L2 colon): 3.43 µM | TGI (LOX IMVI melanoma): 13.1 µM | TGI (LXFL 529 NSCLC): 17.4 µM | TGI (M14 melanoma): 4.76 µM | TGI (MALME-3M melanoma): 8.12 µM | TGI (MOLT-4 leukemia): 12.2 µM | TGI (NCI-H23 lung): 12.8 µM | TGI (NCI-H460 lung): 10.5 µM | TGI (NCI-H522 lung): 4.04 µM | TGI (OVCAR-3 ovarian): 4.89 µM | TGI (OVCAR-4 ovarian): 23 µM | TGI (OVCAR-5 ovarian): 17.4 µM | TGI (OVCAR-8 ovarian): 12.7 µM | TGI (RPMI-8226 leukemia): 8.7 µM | TGI (SF-268 CNS): 16.1 µM | TGI (SF-295 CNS): 6.18 µM | TGI (SF-539 CNS): 3.48 µM | TGI (SK-MEL-2 melanoma): 6.17 µM | TGI (SK-MEL-28 melanoma): 17.4 µM | TGI (SK-MEL-5 melanoma): 6.98 µM | TGI (SK-OV-3 ovarian): 9.25 µM | TGI (SN12C renal): 13.4 µM | TGI (SNB-19 CNS): 22.5 µM | TGI (SNB-75 CNS): 5.15 µM | TGI (SNB-78 CNS): 16.6 µM | TGI (TK-10 renal): 12.8 µM | TGI (U251 CNS): 10 µM | TGI (UACC-257 melanoma): 19 µM | TGI (UACC-62 melanoma): 10.1 µM

Cc1cc(N(CCC#N)CCC#N)ccc1/C(N=Nc1cccc([N+](=O)[O-])c1)=N/NC(=O)c1cc(Cl)ccc1O
TGI (786-0 renal): > 100 µM | TGI (A498 renal): 49.2 µM | TGI (A549 NSCLC): > 100 µM | TGI (ACHN renal): > 100 µM | TGI (BT-549 breast): 92.7 µM | TGI (CAKI-1 renal): 56.7 µM | TGI (CCRF-CEM leukemia): 26.7 µM | TGI (COLO 205 colon): 38.8 µM | TGI (DU-145 prostate): > 100 µM | TGI (EKVX NSCLC): 93.6 µM | TGI (HCC-2998 colon): 93.4 µM | TGI (HCT-116 colon): > 100 µM | TGI (HCT-15 colon): 80.5 µM | TGI (HL-60(TB) leukemia): 37.8 µM | TGI (HOP-62 NSCLC): > 100 µM | TGI (HOP-92 NSCLC): 76.3 µM | TGI (HS 578T breast): > 100 µM | TGI (HT29 colon): > 100 µM | TGI (IGROV1 ovarian): 32.8 µM | TGI (K-562 leukemia): > 100 µM | TGI (KM12 colon): > 100 µM | TGI (LOX IMVI melanoma): 49.3 µM | TGI (M14 melanoma): > 100 µM | TGI (MALME-3M melanoma): > 100 µM | TGI (MCF7 breast): > 100 µM | TGI (MDA-MB-231 breast): 53.5 µM | TGI (MDA-MB-435): > 100 µM | TGI (MDA-N): > 100 µM | TGI (MOLT-4 leukemia): 32.1 µM | TGI (NCI-H226 lung): > 100 µM | TGI (NCI-H23 lung): 64.1 µM | TGI (NCI-H460 lung): 88.6 µM | TGI (NCI-H522 lung): 90.2 µM | TGI (NCI/ADR-RES ovarian): > 100 µM | TGI (OVCAR-3 ovarian): 59.5 µM | TGI (OVCAR-4 ovarian): 92.2 µM | TGI (OVCAR-5 ovarian): > 100 µM | TGI (OVCAR-8 ovarian): > 100 µM | TGI (PC-3 prostate): > 100 µM | TGI (RPMI-8226 leukemia): 47.5 µM | TGI (RXF 393 renal): 72.2 µM | TGI (SF-268 CNS): > 100 µM | TGI (SF-295 CNS): > 100 µM | TGI (SF-539 CNS): > 100 µM | TGI (SK-MEL-2 melanoma): 63.3 µM | TGI (SK-MEL-28 melanoma): > 100 µM | TGI (SK-MEL-5 melanoma): 39.3 µM | TGI (SK-OV-3 ovarian): > 100 µM | TGI (SN12C renal): > 100 µM | TGI (SNB-19 CNS): > 100 µM | TGI (SNB-75 CNS): 82.6 µM | TGI (SR leukemia): 45 µM | TGI (SW-620 colon): > 100 µM | TGI (T-47D breast): 71 µM | TGI (TK-10 renal): > 100 µM | TGI (U251 CNS): > 100 µM | TGI (UACC-257 melanoma): 94.1 µM | TGI (UACC-62 melanoma): 40.2 µM | TGI (UO-31 renal): 70.8 µM
